Laboratory results: PubChem BioAssay AID2060903 (Molecular Pharmacology Branch, DTP, NCI, 2025)
Blank lines part the entries; values can stand above or below the compound they belong to.

Test system: 377384-186-R-J1-PDC complex spheroid viability
Assay: Anticancer human tumor 377384-186-R-J1-PDC patient-derived pancreatic carcinoma cell line growth inhibition [RAS]
Settings: for IC50: curve of first compound; for viability, T/C: stronger effect = lower value
Outline: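 Agents were tested in combination matrices in half-log decrements from a top concentration at or near clinical Cmax (10 microM if undetermined). Targets were multi-cell spheroids of tumour lines plus HUVEC and MSC stromal cells.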

[1] = second compound 0.000949 µM, first compound 0.0316 µM
[2] = second compound 0.000949 µM, first compound 0.1 µM
[3] = second compound 0.000949 µM, first compound 0.316 µM
[4] = second compound 0.000949 µM, first compound 1 µM
[5] = second compound 0.000949 µM, first compound 3.16 µM
[6] = second compound 0.000949 µM, first compound 10 µM
[7] = second compound 0.003 µM, first compound 0.0316 µM
[8] = second compound 0.003 µM, first compound 0.1 µM
[9] = second compound 0.003 µM, first compound 0.316 µM
[10] = second compound 0.003 µM, first compound 1 µM
[11] = second compound 0.003 µM, first compound 3.16 µM
[12] = second compound 0.003 µM, first compound 10 µM
[13] = second compound 0.00949 µM, first compound 0.0316 µM
[14] = second compound 0.00949 µM, first compound 0.1 µM
[15] = second compound 0.00949 µM, first compound 0.316 µM
[16] = second compound 0.00949 µM, first compound 1 µM
[17] = second compound 0.00949 µM, first compound 3.16 µM
[18] = second compound 0.00949 µM, first compound 10 µM
[19] = second compound 0.03 µM, first compound 0.0316 µM
[20] = second compound 0.03 µM, first compound 0.1 µM
[21] = second compound 0.03 µM, first compound 0.316 µM
[22] = second compound 0.03 µM, first compound 1 µM
[23] = second compound 0.03 µM, first compound 3.16 µM
[24] = second compound 0.03 µM, first compound 10 µM
[25] = second compound 0.0949 µM, first compound 0.0316 µM
[26] = second compound 0.0949 µM, first compound 0.1 µM
[27] = second compound 0.0949 µM, first compound 0.316 µM
[28] = second compound 0.0949 µM, first compound 1 µM
[29] = second compound 0.0949 µM, first compound 3.16 µM
[30] = second compound 0.0949 µM, first compound 10 µM
[31] = second compound 0.3 µM, first compound 0.0316 µM
[32] = second compound 0.3 µM, first compound 0.1 µM
[33] = second compound 0.3 µM, first compound 0.316 µM
[34] = second compound 0.3 µM, first compound 1 µM
[35] = second compound 0.3 µM, first compound 3.16 µM
[36] = second compound 0.3 µM, first compound 10 µM
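Also: spheroids exposed to compounds for seven days before readout.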

IC50 (second compound 0.000949 µM): 126 nM
IC50 (second compound 0.003 µM): < 31.6 nM
IC50 (second compound 0.00949 µM): < 31.6 nM
IC50 (second compound 0.03 µM): < 31.6 nM
IC50 (second compound 0.0949 µM): < 31.6 nM
IC50 (second compound 0.3 µM): < 31.6 nM
Compound: CC(C)NCC(C(=O)N1CCN(c2ncnc3c2C(C)CC3O)CC1)c1ccc(Cl)cc1 (stereo not drawn) + CCn1c(-c2cc(N3CCN(C)CC3)cnc2C(C)OC)c2c3cc(ccc31)-c1csc(n1)CC(NC(=O)C1CC1C)C(=O)N1CCCC(N1)C(=O)OCC(C)(C)C2
viability, T/C [1]: 60.4%
viability, T/C [2]: 54.6%
viability, T/C [3]: 38.6%
viability, T/C [4]: 34.1%
viability, T/C [5]: 34.1%
viability, T/C [6]: 19%
viability, T/C [7]: 19.6%
viability, T/C [8]: 21.2%
viability, T/C [9]: 17.9%
viability, T/C [10]: 16.4%
viability, T/C [11]: 12.7%
viability, T/C [12]: 8.24%
viability, T/C [13]: 5.67%
viability, T/C [14]: 5.95%
viability, T/C [15]: 5.17%
viability, T/C [16]: 7.15%
viability, T/C [17]: 6.27%
viability, T/C [18]: 3.27%
viability, T/C [19]: 3.25%
viability, T/C [20]: 2.3%
viability, T/C [21]: 2.13%
viability, T/C [22]: 1.68%
viability, T/C [23]: 1.07%
viability, T/C [24]: 0.92%
viability, T/C [25]: 1.84%
viability, T/C [26]: 1.86%
viability, T/C [27]: 1.46%
viability, T/C [28]: 1.22%
viability, T/C [29]: 0.74%
viability, T/C [30]: 0.17%
viability, T/C [31]: 2%
viability, T/C [32]: 2.02%
viability, T/C [33]: 1.61%
viability, T/C [34]: 0.77%
viability, T/C [35]: 0.64%
viability, T/C [36]: 0.3%

IC50 (second compound 0.000949 µM): 0.989 nM
IC50 (second compound 0.003 µM): < 0.316 nM
IC50 (second compound 0.00949 µM): < 0.316 nM
IC50 (second compound 0.03 µM): < 0.316 nM
IC50 (second compound 0.0949 µM): < 0.316 nM
IC50 (second compound 0.3 µM): < 0.316 nM
Compound: CC(C)n1nc(-c2ccc3oc(N)nc3c2)c2c(N)ncnc21 + CCn1c(-c2cc(N3CCN(C)CC3)cnc2C(C)OC)c2c3cc(ccc31)-c1csc(n1)CC(NC(=O)C1CC1C)C(=O)N1CCCC(N1)C(=O)OCC(C)(C)C2
viability, T/C (second compound 0.000949 µM, first compound 0.000316 µM): 48.6%
viability, T/C (second compound 0.000949 µM, first compound 0.001 µM): 57.8%
viability, T/C (second compound 0.000949 µM, first compound 0.00316 µM): 35.5%
viability, T/C (second compound 0.000949 µM, first compound 0.01 µM): 26.4%
viability, T/C [1]: 16.2%
viability, T/C [2]: 10.3%
viability, T/C (second compound 0.003 µM, first compound 0.000316 µM): 20.1%
viability, T/C (second compound 0.003 µM, first compound 0.001 µM): 24.1%
viability, T/C (second compound 0.003 µM, first compound 0.00316 µM): 17.6%
viability, T/C (second compound 0.003 µM, first compound 0.01 µM): 13.7%
viability, T/C [7]: 8.27%
viability, T/C [8]: 4.84%
viability, T/C (second compound 0.00949 µM, first compound 0.000316 µM): 4.46%
viability, T/C (second compound 0.00949 µM, first compound 0.001 µM): 4.86%
viability, T/C (second compound 0.00949 µM, first compound 0.00316 µM): 4.1%
viability, T/C (second compound 0.00949 µM, first compound 0.01 µM): 5.4%
viability, T/C [13]: 4.11%
viability, T/C [14]: 2.39%
viability, T/C (second compound 0.03 µM, first compound 0.000316 µM): 2.29%
viability, T/C (second compound 0.03 µM, first compound 0.001 µM): 2.17%
viability, T/C (second compound 0.03 µM, first compound 0.00316 µM): 2.37%
viability, T/C (second compound 0.03 µM, first compound 0.01 µM): 1.66%
viability, T/C [19]: 1.3%
viability, T/C [20]: 0.91%
viability, T/C (second compound 0.0949 µM, first compound 0.000316 µM): 1.81%
viability, T/C (second compound 0.0949 µM, first compound 0.001 µM): 2.1%
viability, T/C (second compound 0.0949 µM, first compound 0.00316 µM): 2.12%
viability, T/C (second compound 0.0949 µM, first compound 0.01 µM): 1.18%
viability, T/C [25]: 0.96%
viability, T/C [26]: 0.58%
viability, T/C (second compound 0.3 µM, first compound 0.000316 µM): 1.71%
viability, T/C (second compound 0.3 µM, first compound 0.001 µM): 1.54%
viability, T/C (second compound 0.3 µM, first compound 0.00316 µM): 1.69%
viability, T/C (second compound 0.3 µM, first compound 0.01 µM): 1.04%
viability, T/C [31]: 0.89%
viability, T/C [32]: 0.59%

IC50 (second compound 0.000949 µM): < 31.6 nM
IC50 (second compound 0.003 µM): < 31.6 nM
IC50 (second compound 0.00949 µM): < 31.6 nM
IC50 (second compound 0.03 µM): < 31.6 nM
IC50 (second compound 0.0949 µM): < 31.6 nM
IC50 (second compound 0.3 µM): < 31.6 nM
Compound: CC(Nc1ccc2c(c1)OCCn1cc(N3C(=O)OCC3C(F)F)nc1-2)C(N)=O (stereo not drawn) + CCn1c(-c2cc(N3CCN(C)CC3)cnc2C(C)OC)c2c3cc(ccc31)-c1csc(n1)CC(NC(=O)C1CC1C)C(=O)N1CCCC(N1)C(=O)OCC(C)(C)C2
viability, T/C [1]: 38.5%
viability, T/C [2]: 27%
viability, T/C [3]: 20.7%
viability, T/C [4]: 14.9%
viability, T/C [5]: 15.3%
viability, T/C [6]: 10%
viability, T/C [7]: 16.6%
viability, T/C [8]: 13.9%
viability, T/C [9]: 6.73%
viability, T/C [10]: 6.02%
viability, T/C [11]: 4.06%
viability, T/C [12]: 4.35%
viability, T/C [13]: 4.34%
viability, T/C [14]: 2.53%
viability, T/C [15]: 3.61%
viability, T/C [16]: 1.94%
viability, T/C [17]: 1.23%
viability, T/C [18]: 0.59%
viability, T/C [19]: 1.88%
viability, T/C [20]: 1.58%
viability, T/C [21]: 0.84%
viability, T/C [22]: 0.45%
viability, T/C [23]: 0.4%
viability, T/C [24]: 0.18%
viability, T/C [25]: 1.11%
viability, T/C [26]: 0.55%
viability, T/C [27]: 0.59%
viability, T/C [28]: 0.36%
viability, T/C [29]: 0.09%
viability, T/C [30]: 0.09%
viability, T/C [31]: 1.13%
viability, T/C [32]: 0.5%
viability, T/C [33]: 0.4%
viability, T/C [34]: 0.29%
viability, T/C [35]: 0.21%
viability, T/C [36]: 0.14%

IC50 (second compound 0.000949 µM): > 10000 nM
IC50 (second compound 0.003 µM): < 31.6 nM
IC50 (second compound 0.00949 µM): < 31.6 nM
IC50 (second compound 0.03 µM): < 31.6 nM
IC50 (second compound 0.0949 µM): < 31.6 nM
IC50 (second compound 0.3 µM): < 31.6 nM
Compound: C[C@@H](NC(=O)c1ncnc(N)c1Cl)c1ncc(C(=O)Nc2cc(C(F)(F)F)c(Cl)cn2)s1 + CCn1c(-c2cc(N3CCN(C)CC3)cnc2C(C)OC)c2c3cc(ccc31)-c1csc(n1)CC(NC(=O)C1CC1C)C(=O)N1CCCC(N1)C(=O)OCC(C)(C)C2
viability, T/C [1]: 60.5%
viability, T/C [2]: 68%
viability, T/C [3]: 62.4%
viability, T/C [4]: 69.9%
viability, T/C [5]: 65.2%
viability, T/C [6]: 49%
viability, T/C [7]: 39.1%
viability, T/C [8]: 36.5%
viability, T/C [9]: 34.7%
viability, T/C [10]: 40.3%
viability, T/C [11]: 29.3%
viability, T/C [12]: 19.9%
viability, T/C [13]: 8.23%
viability, T/C [14]: 12.1%
viability, T/C [15]: 12.7%
viability, T/C [16]: 11.6%
viability, T/C [17]: 14%
viability, T/C [18]: 11.2%
viability, T/C [19]: 2.09%
viability, T/C [20]: 2.73%
viability, T/C [21]: 3.94%
viability, T/C [22]: 4.72%
viability, T/C [23]: 3.74%
viability, T/C [24]: 2.97%
viability, T/C [25]: 2.41%
viability, T/C [26]: 2.22%
viability, T/C [27]: 2.96%
viability, T/C [28]: 3.02%
viability, T/C [29]: 2.41%
viability, T/C [30]: 1.87%
viability, T/C [31]: 1.66%
viability, T/C [32]: 2.36%
viability, T/C [33]: 2.7%
viability, T/C [34]: 2.88%
viability, T/C [35]: 2.27%
viability, T/C [36]: 2.12%
